# According to US11161856B2 (H. Lundbeck A/S, priority 2017, dated 2021):
# Read-outs that look alike come from different tables or passages of the source.
# Key:
# Assay type in all cases: biochemical
# MGLL = target: T1, MGLL (Mus musculus, UniProt O35678); test: In vitro competitive activity-based protein profiling, mouse brain proteome (MGLL); parameters: IC50 MGLL Brain (Mouse, μM): scale not given here; details: for % Inh MGLL Brain (Mouse, μM): concentration not given (μM)
# T1 construct: Brain; from tissue; host or cells: mouse brain proteome
# T1 sequence (O35678 1-303): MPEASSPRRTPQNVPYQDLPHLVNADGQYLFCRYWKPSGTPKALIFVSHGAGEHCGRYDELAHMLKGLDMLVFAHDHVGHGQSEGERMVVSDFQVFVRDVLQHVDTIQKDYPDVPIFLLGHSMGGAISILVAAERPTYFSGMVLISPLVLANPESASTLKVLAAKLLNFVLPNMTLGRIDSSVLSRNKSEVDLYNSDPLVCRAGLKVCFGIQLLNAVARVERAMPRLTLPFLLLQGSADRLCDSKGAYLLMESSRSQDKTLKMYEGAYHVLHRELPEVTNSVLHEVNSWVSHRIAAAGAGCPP
# MAGL = target: T2, MAGL (Homo sapiens, UniProt Q99685); test: In vitro competitive activity-based protein profiling (FP-Rh or HT-01 probe, gel-based); parameters: IC50 MGLL PC3 (Human, μM) / IC50 MGLL PFC (Human, μM): scale not given here; details: for % Inh MGLL PFC (Human, μM) / % Inh MGLL PC3 (Human, μM): concentration not given (μM)
# T2 construct: Proteomes (human prefrontal cortex or cell membrane fractions); from tissue
# T2 sequence (Q99685 1-303): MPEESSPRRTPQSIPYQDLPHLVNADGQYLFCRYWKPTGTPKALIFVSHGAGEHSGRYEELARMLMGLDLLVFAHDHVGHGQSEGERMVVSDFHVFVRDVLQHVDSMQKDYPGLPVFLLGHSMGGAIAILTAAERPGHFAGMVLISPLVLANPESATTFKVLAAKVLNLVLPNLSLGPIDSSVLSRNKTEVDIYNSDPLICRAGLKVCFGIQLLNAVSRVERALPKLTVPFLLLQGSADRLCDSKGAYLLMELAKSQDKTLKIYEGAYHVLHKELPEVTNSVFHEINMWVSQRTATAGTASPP
# Procedure: (§1) In Vitro Competitive Activity-Based Protein Profiling.
# (§2) Proteomes (human prefrontal cortex or cell membrane fractions) (50 μL, 1.0 mg/mL total protein concentration) were preincubated with varying concentrations of inhibitors at 37° C. After 30 min, FP-Rh or HT-01 (1.0 μL, 50 μM in DMSO) was added and the mixture was incubated for another 30 min at room temperature. Reactions were quenched with SDS loading buffer (15 μL-4×) and run on SDS-PAGE.
# ABHD6 = target: T3, ABHD6 (Mus musculus, UniProt Q8R2Y0); test: In vitro competitive activity-based protein profiling, mouse brain proteome (ABHD6); details: mouse brain proteome; concentration not given (μM)
# T3 construct: Brain; from tissue; host or cells: mouse brain proteome
# T3 sequence (Q8R2Y0 1-336): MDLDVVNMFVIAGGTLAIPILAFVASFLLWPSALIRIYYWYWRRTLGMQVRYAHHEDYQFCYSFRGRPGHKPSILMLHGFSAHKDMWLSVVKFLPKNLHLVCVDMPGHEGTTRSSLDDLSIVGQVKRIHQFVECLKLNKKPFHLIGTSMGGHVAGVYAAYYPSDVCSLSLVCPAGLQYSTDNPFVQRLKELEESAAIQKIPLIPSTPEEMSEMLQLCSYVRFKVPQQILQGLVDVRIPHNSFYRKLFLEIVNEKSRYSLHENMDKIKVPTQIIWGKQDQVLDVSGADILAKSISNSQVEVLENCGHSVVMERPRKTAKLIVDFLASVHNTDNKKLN
# Procedure: [The source words this procedure for another target and reports this target under the same test.] as §1, §2
# [1] = prefrontal cortex (PFC) proteome
"% Inh MGLL Brain (Mouse, μM) (MGLL)","% Inh MGLL PFC (Human, μM) (MAGL; [1])","% Inh ABHD6 Brain (Mouse, μM) (ABHD6)","IC50 MGLL PC3 (Human, μM) (MAGL; PC3 cell proteome)","% Inh MGLL PC3 (Human, μM) (MAGL; PC3 cell proteome)","IC50 MGLL Brain (Mouse, μM) (MGLL)","IC50 (MAGL; PC3 cell proteome, read-out: IC50 MGLL PC3 (Human)) [nM]","IC50 (MAGL; prefrontal cortex (PFC) proteome, read-out: IC50 MGLL PFC (Human)) [nM]",Structure (SMILES)
### (### is ≥75%),### (### is ≥75%),### (### is ≥75%),,,,,,"O=C(O)C1CCN(c2cc(C(F)(F)F)ccc2CN2CC3(CCN(C(=O)OC(C(F)(F)F)C(F)(F)F)CC3)C2)CC1 [Example 102, l-(2-((7-(((U,l,3,3,3-Hexafluoropropan-2-yl)oxy)carbonyl)-2,7-diazaspiro[3.5]nonan-2-yl)methyl)-5-(trifluoromethyl)phenyl)piperi-dine-4-carboxylic acid]"
### (### is ≥75%),### (### is ≥75%),## (## is between 25 and 75%),,,,,,"CN(Cc1cc(N2CCOC(C)(C(=O)O)C2)cc(C(F)(F)F)c1)C1(C)CCN(C(=O)OC(C(F)(F)F)C(F)(F)F)CC1 (centres unmarked) [Example 139, 4-(3-(((1-(((1,1,1,3,3,3-Hexafluoropropan-2-yl)oxy)carbonyl)-4-methylpiperidin-4-yl)(methyl)amino)methyl)-5-(trifluoromethyl)phenyl)-2-methylmorpholine-2-carboxylic acid]"
# (# is ≤25%),## (## is between 25 and 75%),### (### is ≥75%),,,,,,"O=C(OC(C(F)(F)F)C(F)(F)F)N1CC2(CCN(Cc3ccc(C(F)(F)F)cc3N3CCCC3)CC2)C1 [Example 150, 1,1,1,3,3,3-Hexafluoropropan-2-yl 7-(2-(pyrrolidin-1-yl)-4-(trifluoromethyl)benzyl)-2,7-diazaspiro[3.5]nonane-2-carboxylate]"
### (### is ≥75%),### (### is ≥75%),### (### is ≥75%),,,,,,"O=C(O)[C@H]1CCCN(c2cc(CN3CC4(CCN(C(=O)OC(C(F)(F)F)C(F)(F)F)CC4)C3)cc(C(F)(F)F)c2)C1 [Example 106, (S)-1-(3-((7-(((1,1,1,3,3,3-Hexafluoropropan-2-yl)oxy)carbonyl)-2,7-diazaspiro[3,5]nonan-2-yl)methyl)-5-(trifluoromelhyl)phenyl) piperidine-3-carboxylic acid]"
### (### is ≥75%),### (### is ≥75%),### (### is ≥75%),,,,,,"O=C(O)C1CN(c2cc(CN3CC4(CCN(C(=O)OC(C(F)(F)F)C(F)(F)F)CC4)C3)cc(C(F)(F)F)c2)CCO1 (centres unmarked) [Example 100, 4-(3-((7-(((1,1,1,3,3,3-Hexafluoropropan-2-yl)oxy)carbonyl)-2,7-diazaspiro[3,5]nonan-2-yl)methyl)-5-(trifluoromethyl)phenyl)morph-oline-2-carboxylic acid]"
### (### is ≥75%),### (### is ≥75%),### (### is ≥75%),* * *,,,,,"CN(Cc1ccc(C(F)(F)F)cc1N1CCC(C(=O)O)CC1)C1(C)CCN(C(=O)OC(C(F)(F)F)C(F)(F)F)CC1 [Example 14, 1-(2-(((1-(((1,1,1,3,3,3-Hexafluoropropan-2-yl)oxy)carbonyl)-4-methylpiperidin-4-yl)(methyl)amino)methyl)-5-(trifluoromethyl)phenyl)piperidine-4-carboxylic acid]"
### (### is ≥75%),### (### is ≥75%),### (### is ≥75%),,,,,,"O=C(O)C1CCCCN1c1cc(CN2CC3(CCN(C(=O)OC(C(F)(F)F)C(F)(F)F)CC3)C2)cc(C(F)(F)F)c1 (stereo not drawn) [Example 120, l-(3-((7-(((1,1,1,3,3,3-Hexafluoropropan-2-yl)oxy)carbonyl)-2,7-diazaspiro[3,5]nonan-2-yl)methyl)-5-(trifluoromethyl)phenvl)piperidine-2-carboxylic acid]"
### (### is ≥75%),,### (### is ≥75%),,### (### is ≥75%),,,,"CN(Cc1ccc(Cl)cc1N1CCC(C(=O)O)CC1)C1(C)CCN(C(=O)OC(C(F)(F)F)C(F)(F)F)CC1 [Example 135, l-(5-Chloro-2-(((1-(((1,1,1,3,3,3-hexafluoropropan-2-yl)oxy)carbonyl)-4-methylpiperidin-4-yl)(methyl)amino)methyl)phenyl)piperidine-4-carboxylic acid]"
### (### is ≥75%),### (### is ≥75%),### (### is ≥75%),,,* * *,,,"O=C(OC(C(F)(F)F)C(F)(F)F)N1CCC2(CCCN2C(=O)c2ccc(Cl)cc2)CC1 [Example 13, 1,1,1,3,3,3-Hexafluoropropan-2-yl 1-(4-chlorobenzoyl)-1,8-diazaspiro[4.5]decane-8-carboxylate]"
### (### is ≥75%),### (### is ≥75%),# (# is ≤25%),,### (### is ≥75%),,100 to 1000,,"CN(Cc1ccc(C(F)(F)F)cc1N1CCC[C@H]1C(=O)O)C1(C)CCN(C(=O)OC(C(F)(F)F)C(F)(F)F)CC1 [Example 132, (2-(((1-(((1,U, 3,3,3-Hexafluoropropan-2-yl)oxy)carbonyl)-4-methylpiperidin-4-yl)(methyl)amino)methyl)-5-(trifluoromethyl)phenyl)proline]"
### (### is ≥75%),### (### is ≥75%),# (# is ≤25%),,,,,,"O=C(O)CN1CC2(CCN(c3cc(C(F)(F)F)ccc3CN3CCCC34CCN(C(=O)OC(C(F)(F)F)C(F)(F)F)CC4)CC2)C1 [Example 157, 2-(7-(2-((8-(((1,1,1,3,3,3-Hexafluoropropan-2-yl)oxy)carbonyl)-1,8-diazaspiro[4.5]decan-1-yl)methyl)-5-(trifluoromethyl)phenyl)-2,7-diazaspiro[3.5]nonan-2-yl)acetic acid]"
## (## is between 25 and 75%),## (## is between 25 and 75%),# (# is ≤25%),,,,,,"O=C(O)C1CCN(Cc2cc(C(F)(F)F)ccc2CN2CCC3(CC2)CCN(C(=O)OC(C(F)(F)F)C(F)(F)F)C3)CC1 [Example 220, l-(2-((2-(((1,1,1,3,3,3-Hexafluoropropan-2-yl)oxy)carbonyl)-2,8-diazaspiro[4.5]decan-8-yl)methyl)-5-(trifluoromethyl)benzyl) piperidine-4-carboxylic acid]"
### (### is ≥75%),### (### is ≥75%),### (### is ≥75%),,,,,,"O=C(OC(C(F)(F)F)C(F)(F)F)N1CCC2(CC1)CCN(C(=O)c1cc(Cl)cc(C(F)(F)F)c1)C2 [Example 110, 1,1,1,3,3,3-Hexafluoropropan-2-yl 2-(3-chloro-5-(trifluoromethyl)benzoyl)-2,8-diazaspiro[4.5]decane-8-carboxylate]"
### (### is ≥75%),,# (# is ≤25%),,### (### is ≥75%),,,,"O=C(O)CN1CCN(c2cc(CN3CCCC34CCN(C(=O)OC(C(F)(F)F)C(F)(F)F)CC4)cc(C(F)(F)F)c2)CC1 [Example 2, 2-(4-(3-((8-(((1,1,1,3,3,3-Hexafluoropropan-2-yl)oxy)carbonyl)-1,8-diazaspiro[4.5]decan-1-yl)methyl)-5-(trifluoromethyl)phenyl)piperazin-1-yl)acetic acid]"
### (### is ≥75%),,# (# is ≤25%),,### (### is ≥75%),,,< 100,O=C(O)C1CCCN1C1CCN(c2cc(C(F)(F)F)ccc2CN2CCCC23CCN(C(=O)OC(C(F)(F)F)C(F)(F)F)CC3)CC1 (centres unmarked) [Example 159]
